Reference: ChEMBL document CHEMBL4007501, “Synthesis and antitumor evaluation of 2,3-diarylbenzofuran derivatives on HeLa cells” (Bioorg Med Chem Lett, 2017)
Active and inactive are the calls of the source. The calls are words filed in the database; no cut-off is given here.

How the values were obtained:
HeLa [1] = experiment: Cytotoxicity against human HeLa cells assessed as decrease in cell viability after 48 hrs by MTT assay; assay type: functional, cell-based
P388 = experiment: Cytotoxicity against mouse P388 cells assessed as growth inhibition; assay type: functional, cell-based
MCF7 = experiment: Cytotoxicity against human MCF7 cells assessed as decrease in cell viability by MTT assay; assay type: functional, cell-based
HepG2 = experiment: Cytotoxicity against human HepG2 cells assessed as decrease in cell viability by MTT assay; assay type: functional, cell-based
HeLa [2] = experiment: Induction of apoptosis in human HeLa cells assessed as viable cells at 20 uM after 24 hrs by annexin V/FITC-propidium iodide staining-based flow cytometric method (reference value: 95.4%); assay type: functional; conditions: read-out: Activity
HeLa [3] = experiment: Induction of apoptosis in human HeLa cells assessed as early apoptotic cells at 20 uM after 24 hrs by annexin V/FITC-propidium iodide staining-based flow cytometric method (reference value: 1.76%); assay type: functional
HeLa [4] = experiment: Induction of apoptosis in human HeLa cells assessed as necrotic cells at 30 uM after 24 hrs by annexin V/FITC-propidium iodide staining-based flow cytometric method (reference value: 1.81%); assay type: functional
HeLa [5] = experiment: Cell cycle arrest in human HeLa cells assessed as accumulation at G2 phase at 10 uM after 48 hrs by propidium iodide staining-based flow cytometric analysis (reference value: 4.45%); assay type: functional
HeLa [6] = experiment: Cell cycle arrest in human HeLa cells assessed as accumulation at S phase at 30 uM after 48 hrs by propidium iodide staining-based flow cytometric analysis (reference value: 29.20%); assay type: functional
HeLa [7] = experiment: Cell cycle arrest in human HeLa cells assessed as accumulation at G2 phase at 20 uM after 48 hrs by propidium iodide staining-based flow cytometric analysis (reference value: 4.45%); assay type: functional
HeLa [8] = experiment: Cell cycle arrest in human HeLa cells assessed as accumulation at G1 phase at 10 uM after 48 hrs by propidium iodide staining-based flow cytometric analysis (reference value: 66.35%); assay type: functional
HeLa [9] = experiment: Cell cycle arrest in human HeLa cells assessed as accumulation at G2 phase at 30 uM after 48 hrs by propidium iodide staining-based flow cytometric analysis (reference value: 4.45%); assay type: functional
HeLa [10] = experiment: Induction of apoptosis in human HeLa cells assessed as viable cells at 10 uM after 24 hrs by annexin V/FITC-propidium iodide staining-based flow cytometric method (reference value: 95.4%); assay type: functional; conditions: read-out: Activity
HeLa [11] = experiment: Cell cycle arrest in human HeLa cells assessed as accumulation at S phase at 10 uM after 48 hrs by propidium iodide staining-based flow cytometric analysis (reference value: 29.20%); assay type: functional
HeLa [12] = experiment: Cell cycle arrest in human HeLa cells assessed as accumulation at G1 phase at 20 uM after 48 hrs by propidium iodide staining-based flow cytometric analysis (reference value: 66.35%); assay type: functional
HeLa [13] = experiment: Induction of apoptosis in human HeLa cells assessed as late apoptotic cells at 30 uM after 24 hrs by annexin V/FITC-propidium iodide staining-based flow cytometric method (reference value: 0.987%); assay type: functional
HeLa [14] = experiment: Induction of apoptosis in human HeLa cells assessed as early apoptotic cells at 10 uM after 24 hrs by annexin V/FITC-propidium iodide staining-based flow cytometric method (reference value: 1.76%); assay type: functional
HeLa [15] = experiment: Induction of apoptosis in human HeLa cells assessed as necrotic cells at 10 uM after 24 hrs by annexin V/FITC-propidium iodide staining-based flow cytometric method (reference value: 1.81%); assay type: functional
HeLa [16] = experiment: Cell cycle arrest in human HeLa cells assessed as accumulation at S phase at 20 uM after 48 hrs by propidium iodide staining-based flow cytometric analysis (reference value: 29.20%); assay type: functional
HeLa [17] = experiment: Induction of apoptosis in human HeLa cells assessed as early apoptotic cells at 30 uM after 24 hrs by annexin V/FITC-propidium iodide staining-based flow cytometric method (reference value: 1.76%); assay type: functional
HeLa [18] = experiment: Induction of apoptosis in human HeLa cells assessed as late apoptotic cells at 20 uM after 24 hrs by annexin V/FITC-propidium iodide staining-based flow cytometric method (reference value: 0.987%); assay type: functional
HeLa [19] = experiment: Cytotoxicity against human HeLa cells assessed as decrease in cell viability at 20 uM after 48 hrs by MTT assay relative to control; assay type: functional
HeLa [20] = experiment: Induction of apoptosis in human HeLa cells assessed as necrotic cells at 20 uM after 24 hrs by annexin V/FITC-propidium iodide staining-based flow cytometric method (reference value: 1.81%); assay type: functional
HeLa [21] = experiment: Induction of apoptosis in human HeLa cells assessed as viable cells at 30 uM after 24 hrs by annexin V/FITC-propidium iodide staining-based flow cytometric method (reference value: 95.4%); assay type: functional; conditions: read-out: Activity
HeLa [22] = experiment: Cell cycle arrest in human HeLa cells assessed as accumulation at G1 phase at 30 uM after 48 hrs by propidium iodide staining-based flow cytometric analysis (reference value: 66.35%); assay type: functional
HeLa [23] = experiment: Upregulation of Bak expression in human HeLa cells at 10 to 30 uM after 24 hrs by Western blot method; assay type: functional, cell-based
HeLa [24] = experiment: Upregulation of Bim expression in human HeLa cells at 10 to 30 uM after 24 hrs by Western blot method; assay type: functional, cell-based
HeLa [25] = experiment: Cytotoxicity against human HeLa cells assessed as decrease in cell viability at 10 uM after 48 hrs by MTT assay relative to control; assay type: functional
HeLa [26] = experiment: Downregulation of Bcl-xL expression in human HeLa cells at 10 to 30 uM after 24 hrs by Western blot method; assay type: functional, cell-based
HeLa [27] = experiment: Induction of apoptosis in human HeLa cells assessed as late apoptotic cells at 10 uM after 24 hrs by annexin V/FITC-propidium iodide staining-based flow cytometric method (reference value: 0.987%); assay type: functional
HeLa [28] = experiment: Downregulation of Bcl-2 expression in human HeLa cells at 10 to 30 uM after 24 hrs by Western blot method; assay type: functional, cell-based

Oc1ccc(-c2c(-c3ccc(F)cc3)oc3cc(O)ccc23)c(O)c1
IC50 (HeLa [1]): 28.3 µM

O=C1c2c(O)cc(O)cc2-c2c(-c3ccc(O)cc3)oc3cc(O)cc1c23
IC50 (P388): 13.2 µM

Oc1ccc(-c2c(-c3ccc(Br)cc3)oc3cc(O)ccc23)c(O)c1
IC50 (HeLa [1]): 36.7 µM

COc1cccc(-c2oc3cc(O)ccc3c2-c2ccc(O)cc2O)c1
IC50 (HeLa [1]): 29.9 µM

COc1cccc(-c2c(-c3ccccc3)oc3c(OC)cccc23)c1O
IC50 (HeLa [1]): 57.8 µM

COc1ccc(-c2oc3cc(O)ccc3c2-c2ccc(O)cc2O)cc1
IC50 (HeLa [1]): 13.7 µM

Oc1ccc(-c2c(-c3cccc(Br)c3)oc3cc(O)ccc23)c(O)c1
IC50 (HeLa [1]): 26.9 µM

COc1ccc(-c2c(-c3ccccc3)oc3cc(OC)ccc23)c(O)c1
IC50 (HeLa [1]): 28.9 µM

Oc1ccc(-c2c(-c3cccnc3)oc3cc(O)ccc23)c(O)c1
IC50 (HeLa [1]): 19.9 µM

Oc1ccc(-c2c(-c3ccccc3Br)oc3cc(O)ccc23)c(O)c1
IC50 (HeLa [1]): > 100 µM

COc1ccc(/C=C/c2cc(OC)c3c(-c4cc(OC)cc(OC)c4)c(-c4ccc(OC)cc4)oc3c2)cc1
IC50 (MCF7): 0.85 µM | IC50 (HepG2): 0.24 µM

CC[C@@]1(O)C(=O)OCc2c1cc1n(c2=O)Cc2cc3cc(O)ccc3nc2-1 [HYDROXYCAMPTOTHECIN]
IC50 (HeLa [1]): 10 µM

Cc1ccc(-c2oc3cc(O)ccc3c2-c2ccc(O)cc2O)cc1
IC50 (HeLa [1]): 29.2 µM

Oc1ccc(-c2c(-c3ccc4ccccc4c3)oc3cc(O)ccc23)c(O)c1
IC50 (HeLa [1]): 21.2 µM

Cc1ccccc1-c1oc2cc(O)ccc2c1-c1ccc(O)cc1O
IC50 (HeLa [1]): 47.5 µM

Oc1ccc(-c2c(-c3ccc(Cl)cc3)oc3cc(O)ccc23)c(O)c1
IC50 (HeLa [1]): 32.7 µM

Oc1ccc(-c2c(-c3ccccc3)oc3cc(O)ccc23)c(O)c1
IC50 (HeLa [1]): 29.7 µM

Oc1ccc(-c2oc3cc(O)ccc3c2-c2ccc(O)cc2O)cc1
IC50 (HeLa [1]): 32 µM

Cc1cccc(-c2oc3cc(O)ccc3c2-c2ccc(O)cc2O)c1
viability at 20 µM (HeLa [2]): 69.5% | Activity (HeLa [3]): 8.57% | Activity (HeLa [4]): 11.5% | Activity (HeLa [5]): 7.56% | Activity (HeLa [6]): 31.82% | IC50 (HeLa [1]): 13.4 µM | Activity (HeLa [7]): 6.31% | Activity (HeLa [8]): 70.88% | Activity (HeLa [9]): 7.1% | viability at 10 µM (HeLa [10]): 82.7% | Activity (HeLa [11]): 21.56% | Activity (HeLa [12]): 63.54% | Activity (HeLa [13]): 36.2% | Activity (HeLa [14]): 8.05% | Activity (HeLa [15]): 1.97% | Activity (HeLa [16]): 30.15% | Activity (HeLa [17]): 10.3% | Activity (HeLa [18]): 18.9% | Activity (HeLa [19]): 65% | Activity (HeLa [20]): 3.08% | viability at 30 µM (HeLa [21]): 42.1% | Activity (HeLa [22]): 61.08% | Activity (HeLa [23]): Active | Activity (HeLa [24]): Active | Activity (HeLa [25]): 30% | Activity (HeLa [26]): Active | Activity (HeLa [27]): 7.26% | Activity (HeLa [28]): Active
